Like-named read-outs stand apart in the source and are kept apart here.
Experiments:
[1] = test system: L3.6 pancreatic tumor implants; conditions: for Mean Body Weight (g) (Time of Death or Sacrifice): at time of death or sacrifice; for anti-tumor response in combination therapy with C6-ceramide: SCID Mice bearing L3.6 pancreatic tumor implants
Method: (§1) In vivo experiments utilized SCID/Beige/Taconic male mice inoculated subcutaneously (S.C.) with 2×10^6 L3.6 pancreatic cells. Chemotherapy dose levels were based on standardized clinical dosing as modified from in vitro data. […] The data recovered included maximum tumor volume, tumor weight, body weight and survival. Histopathology studies were carried out in a separate group of 40 mice treated by the same drug dose levels and autopsied at 4 hours and 24 hours. Tumors were bi-valved and fixed in buffered formalin or frozen in hexane/acetone bath. A major focus was effects on tumor necrosis, apoptosis, mitotic index and caspase 3 index.
SCID/Beige/Taconic male mice, 22-25 g, 6-8 weeks old purchased from Taconic Laboratory (Germantown, N.Y.) were ear tagged and randomized into eight groups of 5 mice each prior to inoculation s.c. with 2×10^6 L3.6 PA cells (46) in a volume 0.1 ml into the internal surface of the right thigh. Treatment was started according to the protocol <0.5 cc> (early 4 days or late 10 days). […] Mice were treated 3 times/week for 4-6 weeks with intraperitoneal injections of chemotherapy at dose levels to be described. Body weight of mice and diameters of tumors were measured every week. Tumor volumes (cm^3) were calculated by formula: V=Higher diameter X (smaller diameter)^2/2 (47-50). At the end of the 6 week observation period surviving mice were euthanized with CO2 inhalation. All the mice were autopsied and tissues were fixed in 10% buffered formalin, embedded in paraffin, and H&E sections of primary tumor, lungs, spleen, liver were examined microscopically. We also analyzed survival rate (%), mean tumor volume (MTV), mean survival time (MST), % mice with primary tumors and final rate of tumor development per survival time (FRTD). The last test was calculated from the MTV and MST: FRTD(cm^3/d)=MTV (cm^3/MST/day).
Our initial dose response studies were done using low dose ceramide 1 mg/kg and oxaliplatin dose levels of 11.0 mg/kg→3.5 mg/kg. […] We next studied the optimum ceramide dose level from 1 mg/kg to 10 mg/kg.

[2] = test system: L36 Tumors; test: Short term (4/24 hrs) histopathology of L3.6 tumors: necrosis, mitotic index, apoptosis (H&E), caspase 3 staining; format: in vivo, mice
Method: as §1

[3] = IP 3x/wk from day 4, paclitaxel 3.0, oxaliplatin 2.5, cisplatin 0.5 mg/kg, ceramide 10 mg/kg, volumes calculated in cm^3
[4] = same dosing, 6 week observation
[5] = Oxaliplatin at 2.5 mg/kg with low dose ceramide 1 mg/kg

SMILES	% Survival @ 3 Weeks [1]	% Surviving at 3 wks ([1]; table T3)	% Survival @ 6 Weeks [1]	% Surviving at 6 wks ([1]; table T3)	Mean Final Tumor Volume [1, 3]	Mean Body Weight (g) (Time of Death or Sacrifice) [1]	Mean Survival Time [1, 4]	Mean Final Tumor Volume ([1]; table T3)	Mean Survival Time ([1]; table T3)	% of Necroses ([2]; 4 hr after treatment)	Apoptosis Index ([2]; 4 hrs)	Apoptosis N/4000 Cells ([2]; 4 hrs)	Caspase 3 Index ([2]; 4 hrs)	Caspase N/4000 Cells ([2]; 4 hrs)	Difference in Caspase Expression Vs. Control ([2]; 4 hrs)	Mitotic Index ([2]; 4 hrs)	Apoptosis Index ([2]; 24 hrs)	Apoptosis N/4000 Cells ([2]; 24 hrs)	Caspase 3 Index ([2]; 24 hrs)	anti-tumor response in combination therapy with C6-ceramide [1]	other results
CCCCCCCCCCCCC/C=C/[C@@H](O)[C@H](CO)NC(=O)CCCCC [Ceramide, N-hexanoyl-D-sphingosine]	40%	40%	0%	0%	1.69 +/− 0.3	17.0 g	20.8 ± 1.1 days	1.69 +/− .03	20.8 +/− 1.1	30/NA %	1.6	64 N/4000 Cells	4.12	165 N/4000 Cells	155%	0.6%	1/2	46 N/4000 Cells	4.25		synergy regarding anti-tumor effect ([1]; Ceramide 10 mg/kg with oxaliplatin 2.5 mg/kg): optimum synergy; enhancement of oxaliplatin by ceramide ([1]; Ceramide at 1 mg/kg with oxaliplatin 2.5 mg/kg): only modest effects; animal weight under combination therapy ([1]; mouse, in vivo): preservation of animal weight; Caspase N/4000 Cells ([2]; 24 hrs): 157 N/4000 Cells; Difference in Caspase Expression Vs. Control ([2]; 24 hrs): 148%; Mitotic Index ([2]; 24 hrs): 0/32
N.N.[Cl][Pt][Cl] [Cisplatin]	60%	60%	0%	0%	1.83 +/− 0.1	16.6 g	25.6 ± 3.2 days	1.83 +/− 0.1	25.6 +/− 3.2											significantly enhanced	
O=C1[O][Pt]2([NH][C@@H]3CCCC[C@H]3[NH]2)[O]C1=O [Oxaliplatin]	100%	100%	0%	0%	1.76 +/− 0.2	15.6 g	27.4 ± 2.2 days	1.76 +/− 0.2	27.4 +/− 2.2	30%	1.35	54 N/4000 Cells	3.5	148 N/4000 Cells	132%	0.92%	1.28	51 N/4000 Cells	3/1	significantly enhanced	activity in initial dose response studies [1, 5]: most active; toxicity in initial dose response studies [1, 5]: less toxic than other dose levels; % of Necroses ([2]; 24 hr after treatment): 10%; Caspase N/4000 Cells ([2]; 24 hrs): 123 N/4000 Cells; Difference in Caspase Expression Vs. Control ([2]; 24 hrs): 121%; Mitotic Index ([2]; 24 hrs): 0/57
CC(=O)O[C@H]1C(=O)[C@@]2(C)[C@H]([C@H](OC(=O)c3ccccc3)[C@]3(O)C[C@H](OC(=O)[C@H](O)[C@@H](NC(=O)c4ccccc4)c4ccccc4)C(C)=C1C3(C)C)[C@]1(OC(C)=O)CO[C@@H]1C[C@@H]2O [Taxol, Paclitaxel]	60%	60%	0%	0%	1.83 +/− 0.4	17.4 g	23.0 ± 2.4 days	1.83 +/− 0.4	23.0 +/− 2.4	50/NA %		66 N/4000 Cells			95%/ ^			110 N/4000 Cells		significantly enhanced	
